Reference: ChEMBL document CHEMBL1811886 (J Med Chem, 2011)

What was measured:
[1] = target: Poly [ADP-ribose] polymerase 1 (Homo sapiens, UniProt P09874); test: Inhibition of human PARP1
[2] = target: T1, Sodium-dependent dopamine transporter (Homo sapiens, UniProt Q01959); test: Inhibition of recombinant human dopamine transporter
[3] = target: T2, Sodium-dependent noradrenaline transporter (Homo sapiens, UniProt P23975); test: Inhibition of recombinant human norepinephrine transporter
[4] = Aqueous solubility of the compound at pH 2; format: physicochemical
[5] = Aqueous solubility of the compound at pH 7.4; format: physicochemical
[6] = Apparent permeability across human Caco2 cell membrane; format: ADME, cell-based; details: Caco-2
[7] = Mutagenic activity in human peripheral blood lymphocytes by micronucleus test in presence metabolic activation; format: toxicity, cell-based; details: lymphocyte
[8] = Mutagenic activity in human peripheral blood lymphocytes by micronucleus test in absence metabolic activation; format: toxicity, cell-based; details: lymphocyte
[9] = test system: Salmonella typhimurium; test: Mutagenic activity in Salmonella Typhimurium by Ames test; format: toxicity, organism-based; details: salmonella enterica subsp. enterica serovar typhimurium
[10] = Mutagenic activity in Salmonella Typhimurium by Ames test in presence of rat liver S9 fraction; format: toxicity, subcellular; details: salmonella enterica subsp. enterica serovar typhimurium
[11] = species: Rattus norvegicus; test: Toxicity in rat up to 28 days; format: organism-based; details: in vivo, 672 h
[12] = test system: Rhesus monkey; test: Toxicity in monkey up to 28 days; format: organism-based, Macaca mulatta; details: in vivo, 672 h
[13] = test system: Rhesus monkey; test: Toxicity in monkey assessed as changes in cardiovascular function after 28 days; format: organism-based, Macaca mulatta, Heart; details: in vivo, 672 h
[14] = test system: Rhesus monkey; test: Toxicity in monkey assessed as changes in respiratory function after 28 days; format: organism-based, Macaca mulatta; details: in vivo, 672 h
[15] = test system: Rattus norvegicus; test: Inhibition of RAMH-induced dipsogenia in ip dosed Long Evans rat administered 15 mins prior to RAMH challenge; format: functional
[16] = test system: Rattus norvegicus; test: Inhibition of RAMH-induced dipsogenia in Long Evans rat administered as po 15 mins prior to RAMH challenge; format: functional
[17] = test system: Rattus norvegicus; test: Toxicity in rat central nervous system assessed as changes in behavioral response at 10 to 300 mg/kg, po measured from 15 mins through 6 hrs by Irwin test; format: organism-based; design: dose 10-300 mg/kg, route oral; details: in vivo
[18] = test system: Rattus norvegicus; test: Toxicity in rat central nervous system assessed as side effects up to 100 mg/kg, po measured from 15 mins through 6 hrs by Irwin test; format: organism-based; design: dose 100 mg/kg, route oral; details: in vivo
[19] = Drug level in rat brain at 100 mg/kg, po administered after 1 hr post dosing; format: ADME, organism-based; design: dose 100 mg/kg, route oral; details: read-out: Drug uptake
[20] = target: T3, Histamine H3 receptor (Homo sapiens, UniProt Q9Y5N1); test: Displacement of [3H]NAMH from human histamine H3 receptor expressed in CHO cells; format: cell-based
[21] = target: T4, Histamine H3 receptor (Rattus norvegicus, UniProt Q9QYN8); test: Displacement of [3H]NAMH from rat histamine H3 receptor expressed in CHO cells; format: cell-based
[22] = Distribution coefficient log D of the compound at pH 7.4; format: physicochemical; details: octanol/water
[23] = target: T4, Histamine H3 receptor; test: Antagonist activity at histamine H3 receptor in rat cortical membrane; format: functional, cell membranes
[24] = Dissociation constant, pKa of the compound; format: physicochemical
[25] = target: T3, Histamine H3 receptor; test: Inverse agonist activity at human histamine H3 receptor assessed as inhibition of R-alpha-methylhistamine induced [35S]GTPgammaS binding; format: functional
[26] = target: T4, Histamine H3 receptor; test: Inverse agonist activity at rat histamine H3 receptor assessed as inhibition of R-alpha-methylhistamine induced [35S]GTPgammaS binding; format: functional
[27] = target: Muscarinic acetylcholine receptor M2 (Homo sapiens, UniProt P08172); test: Inhibition of muscarinic M2 receptor
[28] = target: Alpha-1A adrenergic receptor (Homo sapiens, UniProt P35348); test: Inhibition of adrenergic alpha 1A receptor
[29] = target: T1, Sodium-dependent dopamine transporter; test: Inhibition of dopamine transporter
[30] = target: T2, Sodium-dependent noradrenaline transporter; test: Inhibition of norepinephrine transporter
[31] = Inhibition of PDE3

T4 sequence (Q9QYN8 whole entry): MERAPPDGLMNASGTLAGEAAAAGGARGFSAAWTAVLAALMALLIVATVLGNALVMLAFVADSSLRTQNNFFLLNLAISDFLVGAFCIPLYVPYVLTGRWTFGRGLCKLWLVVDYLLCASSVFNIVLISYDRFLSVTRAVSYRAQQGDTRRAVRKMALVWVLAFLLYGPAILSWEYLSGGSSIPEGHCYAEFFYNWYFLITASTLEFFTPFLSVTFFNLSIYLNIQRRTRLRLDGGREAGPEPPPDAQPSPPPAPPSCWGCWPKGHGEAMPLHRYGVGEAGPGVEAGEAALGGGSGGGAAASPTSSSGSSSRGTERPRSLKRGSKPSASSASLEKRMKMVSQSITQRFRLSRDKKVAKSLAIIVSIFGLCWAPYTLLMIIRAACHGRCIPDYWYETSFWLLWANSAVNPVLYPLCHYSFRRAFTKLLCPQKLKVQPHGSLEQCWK
T1 sequence (Q01959 whole entry): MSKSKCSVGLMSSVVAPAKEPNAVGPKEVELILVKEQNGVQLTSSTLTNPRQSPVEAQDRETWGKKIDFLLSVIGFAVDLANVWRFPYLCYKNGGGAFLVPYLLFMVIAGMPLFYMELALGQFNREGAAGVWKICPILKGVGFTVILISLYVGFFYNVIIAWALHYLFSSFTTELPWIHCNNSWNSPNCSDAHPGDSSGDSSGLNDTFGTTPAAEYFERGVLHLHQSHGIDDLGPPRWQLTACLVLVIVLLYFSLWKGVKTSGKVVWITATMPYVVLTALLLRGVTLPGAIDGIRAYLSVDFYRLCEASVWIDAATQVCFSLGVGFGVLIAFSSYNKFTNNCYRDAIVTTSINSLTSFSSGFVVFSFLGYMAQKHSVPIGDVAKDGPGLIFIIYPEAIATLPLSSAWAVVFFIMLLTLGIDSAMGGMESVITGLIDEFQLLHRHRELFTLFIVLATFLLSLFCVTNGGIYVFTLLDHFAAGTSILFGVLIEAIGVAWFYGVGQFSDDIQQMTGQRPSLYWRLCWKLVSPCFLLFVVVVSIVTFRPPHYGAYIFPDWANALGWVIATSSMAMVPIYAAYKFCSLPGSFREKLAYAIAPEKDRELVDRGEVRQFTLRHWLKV
T3 sequence (Q9Y5N1 whole entry): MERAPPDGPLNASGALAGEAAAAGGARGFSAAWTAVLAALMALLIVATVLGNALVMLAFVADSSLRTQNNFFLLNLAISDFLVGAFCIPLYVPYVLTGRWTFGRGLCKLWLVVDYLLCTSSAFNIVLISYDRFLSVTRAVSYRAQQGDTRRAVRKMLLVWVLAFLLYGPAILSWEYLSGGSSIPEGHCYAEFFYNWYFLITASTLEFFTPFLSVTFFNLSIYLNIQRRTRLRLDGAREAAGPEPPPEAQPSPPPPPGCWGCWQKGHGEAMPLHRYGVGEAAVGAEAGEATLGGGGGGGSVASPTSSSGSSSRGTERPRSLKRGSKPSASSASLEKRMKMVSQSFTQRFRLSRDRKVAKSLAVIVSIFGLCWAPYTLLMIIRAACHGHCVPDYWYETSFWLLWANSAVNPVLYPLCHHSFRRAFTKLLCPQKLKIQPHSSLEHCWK
T2 sequence (P23975 whole entry): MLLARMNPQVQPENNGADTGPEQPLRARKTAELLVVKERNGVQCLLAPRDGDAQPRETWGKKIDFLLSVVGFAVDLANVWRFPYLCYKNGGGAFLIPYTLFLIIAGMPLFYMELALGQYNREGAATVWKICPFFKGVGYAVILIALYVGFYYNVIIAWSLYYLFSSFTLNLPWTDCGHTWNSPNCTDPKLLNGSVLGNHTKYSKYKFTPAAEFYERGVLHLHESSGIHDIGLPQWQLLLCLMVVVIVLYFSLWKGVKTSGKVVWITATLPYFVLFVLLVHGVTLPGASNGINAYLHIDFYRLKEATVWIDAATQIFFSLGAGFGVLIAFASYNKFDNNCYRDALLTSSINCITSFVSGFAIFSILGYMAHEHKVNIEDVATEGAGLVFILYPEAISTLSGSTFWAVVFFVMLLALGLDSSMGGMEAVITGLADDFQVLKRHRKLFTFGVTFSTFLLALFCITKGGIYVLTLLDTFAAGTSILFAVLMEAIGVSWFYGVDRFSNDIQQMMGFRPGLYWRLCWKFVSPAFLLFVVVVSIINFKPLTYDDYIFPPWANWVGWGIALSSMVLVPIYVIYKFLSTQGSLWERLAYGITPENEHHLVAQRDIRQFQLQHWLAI
Alpha-1A adrenergic receptor, sequence (P35348 whole entry): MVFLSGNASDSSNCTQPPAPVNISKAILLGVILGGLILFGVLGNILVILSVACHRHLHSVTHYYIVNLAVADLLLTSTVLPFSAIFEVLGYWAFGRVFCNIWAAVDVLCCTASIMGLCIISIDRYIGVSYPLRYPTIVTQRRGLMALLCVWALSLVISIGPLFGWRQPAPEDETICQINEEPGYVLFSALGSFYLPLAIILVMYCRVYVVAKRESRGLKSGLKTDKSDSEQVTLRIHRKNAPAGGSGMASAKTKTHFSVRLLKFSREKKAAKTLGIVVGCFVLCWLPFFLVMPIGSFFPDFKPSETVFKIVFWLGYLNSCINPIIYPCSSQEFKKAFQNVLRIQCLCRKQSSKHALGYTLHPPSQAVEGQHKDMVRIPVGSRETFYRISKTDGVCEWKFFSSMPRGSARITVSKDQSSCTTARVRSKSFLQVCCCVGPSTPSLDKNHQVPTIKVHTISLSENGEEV
Muscarinic acetylcholine receptor M2, sequence (P08172 whole entry): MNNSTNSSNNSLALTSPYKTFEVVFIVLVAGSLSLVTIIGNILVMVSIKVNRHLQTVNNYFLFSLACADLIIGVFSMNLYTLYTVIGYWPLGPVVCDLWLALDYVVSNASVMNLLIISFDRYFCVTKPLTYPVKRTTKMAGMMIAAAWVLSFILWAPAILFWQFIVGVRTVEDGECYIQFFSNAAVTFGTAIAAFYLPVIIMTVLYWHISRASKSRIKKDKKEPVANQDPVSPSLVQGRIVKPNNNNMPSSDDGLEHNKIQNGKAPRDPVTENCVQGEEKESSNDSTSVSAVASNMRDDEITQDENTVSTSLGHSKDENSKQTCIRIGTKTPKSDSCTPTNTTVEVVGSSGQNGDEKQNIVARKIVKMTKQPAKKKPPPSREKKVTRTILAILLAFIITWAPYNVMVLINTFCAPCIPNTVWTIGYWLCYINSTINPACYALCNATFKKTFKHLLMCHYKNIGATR
Poly [ADP-ribose] polymerase 1, sequence (P09874 whole entry): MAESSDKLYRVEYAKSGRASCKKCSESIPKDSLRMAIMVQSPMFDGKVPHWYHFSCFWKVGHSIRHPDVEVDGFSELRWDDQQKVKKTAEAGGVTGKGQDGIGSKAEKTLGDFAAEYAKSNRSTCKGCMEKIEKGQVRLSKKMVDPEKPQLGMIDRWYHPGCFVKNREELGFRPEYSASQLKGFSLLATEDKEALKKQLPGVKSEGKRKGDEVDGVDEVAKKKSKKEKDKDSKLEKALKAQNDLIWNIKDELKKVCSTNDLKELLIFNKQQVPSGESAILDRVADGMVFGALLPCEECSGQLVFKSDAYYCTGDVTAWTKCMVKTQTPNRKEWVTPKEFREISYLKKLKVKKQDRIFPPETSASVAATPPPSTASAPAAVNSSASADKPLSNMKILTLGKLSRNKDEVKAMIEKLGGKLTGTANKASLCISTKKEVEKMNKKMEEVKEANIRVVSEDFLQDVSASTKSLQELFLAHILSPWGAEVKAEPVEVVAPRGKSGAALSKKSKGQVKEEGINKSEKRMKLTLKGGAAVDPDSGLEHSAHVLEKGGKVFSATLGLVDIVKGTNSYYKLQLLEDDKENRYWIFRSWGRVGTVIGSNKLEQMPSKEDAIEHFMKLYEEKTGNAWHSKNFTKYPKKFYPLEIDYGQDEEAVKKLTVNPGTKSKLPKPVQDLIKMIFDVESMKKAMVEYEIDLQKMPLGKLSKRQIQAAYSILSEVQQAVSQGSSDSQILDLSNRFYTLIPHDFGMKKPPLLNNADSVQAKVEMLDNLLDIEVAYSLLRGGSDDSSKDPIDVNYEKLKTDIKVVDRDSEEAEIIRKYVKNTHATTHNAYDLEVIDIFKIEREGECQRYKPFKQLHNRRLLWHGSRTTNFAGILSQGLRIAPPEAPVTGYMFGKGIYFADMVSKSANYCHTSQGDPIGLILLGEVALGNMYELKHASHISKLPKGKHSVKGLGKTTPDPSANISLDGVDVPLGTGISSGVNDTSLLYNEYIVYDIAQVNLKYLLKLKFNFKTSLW

In the case of C[C@@H]1CCCN1CCCOc1ccc(-c2ccc(=O)[nH]n2)cc1 [IRDABISANT], the IC50 [1] is reported as > 30 µM, the IC50 [2] is reported as 9.4 µM and the IC50 [3] is reported as 17.5 µM. For the same compound, the solubility [4] was > 2000 µg/mL, the solubility [5] was > 2000 µg/mL and the Papp [6] was 13.5 ×10⁻⁶ cm/s. The Activity [7] was “Non-toxic”, the Activity [8] was “Non-toxic” and the Activity [9] was “Non-toxic”. For the same compound, the Activity [10] was “Non-toxic”, the Activity [11] was “Non-toxic” and the Activity [12] was “Non-toxic”. The Activity [13] was “Non-toxic”, the Activity [14] was “Non-toxic” and the ED50 [15] was 0.06 mg/kg. The ED50 [16] was 0.01 mg/kg, the Activity [17] was “Non-toxic” and the Activity [18] was “Non-toxic”. It also gave a concentration at 1 h [19] of 36 µM, a Ki [20] of 0.002 µM and a Ki [21] of 0.0072 µM. The logD [22] was 0.6, the Ki [23] was 0.0027 µM and the pKa [24] was 10.2. For the same compound, the EC50 [25] was 0.0011 µM, the EC50 [26] was 0.002 µM and the Ki [27] was 3.7 µM. For the same compound, the Ki [28] was 9.8 µM, the Ki [29] was 11 µM and the Ki [30] was 10 µM. It also gave an IC50 [31] of 15 µM.
